{
  "source": "patent US20040039199A1",
  "about": "“Oxabispidine compound useful in the treatment of cardiac arrhythmias” (priority 2000, published 2004)",
  "system": "Anaesthetised Guinea Pigs",
  "test": "Test A: Primary electrophysiological effects in anaesthetised guinea pigs",
  "format": "in vivo, guinea pig",
  "details": "index of class III electrophysiological potency; MAP duration at 75 percent repolarization during pacing; intravenous infusion, cumulative doses; derived from mean dose-response curve",
  "method": "Primary Electrophysiological Effects In Anaesthetised Guinea Pigs\nGuinea pigs weighing between 660 and 1100 g were used. The animals were housed for at least one week before the experiment and had free access to food and tap water during that period.\nAnaesthesia was induced by an intraperitoneal injection of pentobarbital (40 to 50 mg/kg) and catheters were introduced into one carotid artery (for blood pressure recording and blood sampling) and into one jugular vein (for drug infusions). Needle electrodes were placed on the limbs for recording of ECGs (lead II). A thermistor was placed in the rectum and the animal was placed on a heating pad, set to a rectal temperature of between 37.5 and 38.5° C. […]\nThe left ventricular epicardium was exposed by a left-sided thoracotomy, and a custom-designed suction electrode for recording of the monophasic action potential (MAP) was applied to the left ventricular free wall. The electrode was kept in position as long as an acceptable signal could be recorded, otherwise it was moved to a new position. […]\nThe blood pressure, the MAP signal and the lead II ECG were recorded on a Mingograph ink-jet recorder (Siemens-Elema, Sweden). […] The signals were processed using a custom-made program developed for acquisition and analysis of physiological signals measured in experimental animals (see Axenborg and Hirsch, Comput. Methods Programs Biomed. 41, 55 (1993)). […]",
  "data": [
    {"smiles": "CC(C)(C)C(=O)CN1CC2CN(CCCNc3ccc(C#N)cc3)CC(C1)O2.O=S(=O)(O)c1ccccc1", "note": "[Compound A, 4-({3-[7-(3,3-dimethyl-2-oxobutyl)-9-oxa-3,7-diazabicyclo[3.3.1]non-3-yl]propyl}amino)benzonitrile, benzenesulfonic acid salt]", "values": [
      {"measurement": "D10 (cumulative dose prolonging the MAP duration by 10% from the baseline)", "value": 6.7}
    ]}
  ]
}
